Measured values from patent US20250032581A1, “COMPOSITIONS AND ARTICLES COMPRISING AN ADNF POLYPEPTIDE” (RAMOT AT TEL-AVIV UNIVERSITY LTD., priority 2021, published 2025).

Assays:
Tyr mice = assay: CatWalk gait analysis; type: in vivo, mouse
Protocol: Animals—Animals were housed under a 12-hour light/dark cycle, with food and water ad-libitum. Mouse pups were subcutaneously administrated with NAP [having an amino acid sequence NAPVSIPQ (SEQ ID NO: 2), 25 μg NAP/1 ml saline] as described (8, 12). At 21 days of age mice were administered daily intranasal NAP in vehicle solution (“DD”—7.5 mg/ml of NaCl, 1.7 mg/ml of citric acid, 3 mg/ml of disodium phosphate dihydrate, and 0.2 mg/ml of 50% benzalkonium chloride solution) (0.5 μg NAP/5p1 DD) (8, 9, 12, and U.S. Pat. No. 10,912,819 to Gozes). These mice continued to behavioral analysis as described hereinbelow. The noninvasive intranasal route was chosen as these experiments required daily handling and administration. Age (weeks) of mice during behavioral experiments (mean±SEM) was as follows: Catwalk—9.23±0.15, grooming—10±0.15, social approach—10.5±0.12, odor-discrimination—12.12±0.13, hanging-wire—13±0.14, hotplate—13.18±0.13. Group size was determined following previous experiments (12). Pups were randomly allocated to either the NAP or DD group according to sex and genotype. All procedures involving animals were conducted under the supervision and approval of the institutional animal care and use committee of Tel Aviv University and the Israeli Ministry of Health.
Catwalk—Was performed as previously described (12).
Briefly, for ear twitch reflex, a cotton tip was gently brushed against the tip of the ear three times, between postnatal days 7-15 or until the pup responded correctly for two consecutive days. For air righting reflex, the pup was held up-side down and released ˜10.5 cm above the cage, containing 5 cm of shavings. The test was performed between postnatal days 8-21 or until the pup landed on the shavings with all four paws, for two consecutive days. For surface righting reflex, pups were placed on their backs on a level surface, the test was performed between postnatal days 1-13 until the pups was able to right itself with all four paws on the surface in under a second for two consecutive days. For eye opening, mice were observed daily until both eyes were open (eyelids separated completely). For auditory startle, the pup was placed on a level surface and the experimenter clapped loudly twice until a visible startle response was evident for 2 consecutive days. The test was performed between days 7-18. For cliff aversion, pups were placed on the edge of a small box (approx. 4 cm in height) with both paws protruding over the edge of the box. Pups were allowed 30 sec to avoid the cliff and move themselves backwards. Test was performed between day 1-14 until the pup avoided the cliff in under 30 sec for two consecutive days^9. For the rooting reflex, a cotton tip was gently brushed against the sides of the pup's mouth until the pup moved its head to the direction of the stroke. Both sides were tested twice. […] All tests were conducted between 10 AM-4 PM. For the first 5 postnatal days, each pup was put under a single 60-watt bulb during testing to assure the pups' warmth. • Novel object recognition: Briefly, the open field test was used for the first day of habituation since both tests are conducted in the same arena. The following day animals underwent another habituation to the arena (5 mins). As described, the test included two consecutive days of habituation and the experimental days which consisted of the three phases. […]

Tyr-GFP mouse model = assay: Dendritic spine quantitation in Tyr-GFP mice; type: in vivo
Protocol: Spine quantitation—For determination of dendritic spine morphology, the Tyr-GFP mouse model was used and generated as described(12). 1.5-2-month-old Tyr-GFP-mice were treated for 9 consecutive days with either intraperitoneal NAP injection (0.4 μg/0.1 ml saline) or with 0.1 ml saline. On day 9, mice were perfused, and brains were subjected to immunohistochemistry and imaging (12).

[1] = system: mice with the ASD-linked InsG3680 mutation (SHANK3); assay: Social recognition test in the SHANK3 mouse model; type: in vivo; conditions: intranasal NAP
Protocol: To this end, mice with the ASD-linked InsG3680 mutation were used. Two behavioral assessments were performed on make mice: • 1) Open field behavior attesting to anxiety and depression (Open field behavioral assessment technology was previously described, e.g.); and • 2) Social recognition behavior, related to autistic traits (the social recognition test was previously described, e.g..
In the social recognition test, the results measured both time exploring and frequency exploring the mouse or cup, either directly or in the chamber where the mouse or cup only are present (FIG. 13).

For `CC[C@H](C)[C@H](NC(=O)[C@H](CO)NC(=O)[C@@H](NC(=O)[C@@H]1CCCN1C(=O)[C@H](C)NC(=O)[C@@H](N)CC(N)=O)C(C)C)C(=O)N1CCC[C@H]1C(=O)N[C@@H](CCC(N)=O)C(=O)O` [NAP, NAPVSIPQ], the gait (Tyr mice; WT mice, data not shown) was “No major NAP effect was observed in WT mice”, the “gait: intensity parameters” value (Tyr mice; female Tyr mice) was “significant NAP correction” and the “gait: swing speed and swing duration” value (Tyr mice; female Tyr mice) was “ameliorated by NAP”. The “gait: front base of support” value (Tyr mice; male Tyr mice) was “NAP correcting this phenotype in males”, the “gait: print length and area” value (Tyr mice; male Tyr mice, daily intranasal NAP) was “significant NAP recovery” and the “spine density, motor cortex” value (Tyr-GFP mouse model; WT females, data not shown) was “no treatment effect was found on WT females”. For the same compound, the “PSD95 volume in the hippocampus” value (Tyr-GFP mouse model; female Tyr mice) was “complete resolution upon NAP treatment”, the “mushroom spine density, motor cortex” value (Tyr-GFP mouse model; female Tyr mice) was “NAP significantly affecting the larger, functionally stronger, mushroom shaped spines” and the “increase in spine density, motor cortex L5 layer” value (Tyr-GFP mouse model; female Tyr mice, i.p. NAP, 9 days) was ~17%. The “social recognition: mouse vs. cup exploration” value [1] was “normalization of behavior in the NAP-treated SHANK3 mouse model”.
